Measurements reported in PMC11212140, “Molecular Bidents with Two Electrophilic Warheads as a New Pharmacological Modality” (ACS Central Science, 2024).

Columns and labels:
Experiment in all cases: KiNativ profiling in H3255 cells
Assay type in all cases: cell-based, human
NEK2 = system: T1, NEK2; conditions: 2.5 µM; Lys2; DLKPANVFLDGK
T1 construct: purchased ActivX Biosciences (KiNativ)
Protocol: (§1) treatment. Cell viability was determined by using CellTiter-Glo (Promega #G7571) according to the manufacturer’s instructions, measuring luminescence using an Envision plate-reader (PerkinElmer Inc.). Dose-response curves were generated using non-linear regression curve fit in GraphPad Prism 9.2.0(GraphPad Software).
(§2) Cellular target engagement assays
(§3) After 6 hours treatment, cells were pelleted, washed with PBS once and lysed with IP lysis buffer (25mMTris-HCl pH 7.4, 150mM NaCl, 1 mM EDTA, 1% NP-40 and 5% glycerol) (Thermo Fisher Scientific, Cat#87788) containing protease/phosphatase inhibitor cocktail (Roche). The protein concentrations were measured by BCA analysis (Pierce). Cell lysates were incubated with 1 μM of biotin conjugated probe (bio-Osimertinib or bio-ZNL-0013) at 4 ℃ overnight, and incubated for 3 more hours at room temperature. Lysates with probe were then incubated with streptavidin beads (Thermo Fisher, #20349) for 2 hours at 4 ℃. The protein-probe complexes on the beads were then subjected to immunoblotting.
(§4) H3255 cells were plated with 6.5x10^6 per condition in fresh media in 15 cm plates and treated the 80% confluency for 2 hours with DMSO or 2.5 μM of ZNL-0056. To harvest cells, plates were washed 3 times with cold PBS, then collected by scraping into 4 mL of cold PBS containing protease and phosphatase inhibitors. Cells were pelleted by centrifugation at 1350 g at 4 ℃ for 5 minutes and immediately frozen in liquid nitrogen. The frozen samples were sent to ActivX Biosciences (La Jolla, CA) for the remainder of the KiNativ profiling experiment4.
(§5) Protein expression and purification
(§6) Human EGFR kinase domain (residues 696-1022) with T790M and V948R mutations was cloned with an N-terminal, protease cleavable His -GST tag. Recombinant protein was expressed in SF9 insect cells using baculovirus generated from the pFastBac system (Thermo Fisher) .
(§7) Briefly, cells at a density of ~2x10^6 cells/mL were infected with 1% (v/v) virus stock and grown for ~72 hours before harvesting and freezing the cell pellet . Infected cells were lysed in buffer A (50 mM Tris pH 8.0, 500 mM NaCl, 5% glycerol, 0.5 mM Tris(2-carboxyethyl)phosphine [TCEP]), ultracentrifuged at >200,000 rcf for 1 h, and the supernatant flo wed through Ni-NTA resin by gravity. The resin was washed with buffer A supplemented with 40 mM imidazole by […]

MARK1, MARK2 = conditions: 2.5 µM; Lys1; EVAVKIIDK
Protocol: as §1, §2, §3, §4, §5, §6, §7

FRK = system: T2, FRK; conditions: 2.5 µM
T2 construct: purchased ActivX Biosciences (KiNativ)
Protocol: as §1, §2, §3, §4, §5, §6, §7

CaMKK2 = system: T3, CaMKK2; conditions: 2.5 µM
T3 construct: purchased ActivX Biosciences (KiNativ)
Protocol: as §1, §2, §3, §4, §5, §6, §7

PKD3 = system: T4, PKD3; conditions: 2.5 µM
T4 construct: purchased ActivX Biosciences (KiNativ)
Protocol: as §1, §2, §3, §4, §5, §6, §7

EGFR, EGFR-L858R = system: T5, EGFR, EGFR-L858R; conditions: 2.5 µM
T5 construct: purchased ActivX Biosciences (KiNativ)
Protocol: as §1, §2, §3, §4, §5, §6, §7

PIP4K2C = system: T6, PIP4K2C; conditions: 2.5 µM, ATP
T6 construct: purchased ActivX Biosciences (KiNativ)
Protocol: as §1, §2, §3, §4, §5, §6, §7

MASTL = system: T7, MASTL; conditions: 2.5 µM
T7 construct: purchased ActivX Biosciences (KiNativ)
Protocol: as §1, §2, §3, §4, §5, §6, §7

YANK3 = system: T8, YANK3; conditions: 2.5 µM; Lys2; DVKPDNILLDER
T8 construct: purchased ActivX Biosciences (KiNativ)
Protocol: as §1, §2, §3, §4, §5, §6, §7

CHK2 = system: T9, CHK2; conditions: 2.5 µM
T9 construct: purchased ActivX Biosciences (KiNativ)
Protocol: as §1, §2, §3, §4, §5, §6, §7

CCRK = system: T10, CCRK; conditions: 2.5 µM; Lys2; DLKPANLLISASGQLK
T10 construct: purchased ActivX Biosciences (KiNativ)
Protocol: as §1, §2, §3, §4, §5, §6, §7

GSK3A = system: T11, GSK3A; conditions: 2.5 µM; Lys2; DIKPQNLLVDPDTAVLK
T11 construct: purchased ActivX Biosciences (KiNativ)
Protocol: as §1, §2, §3, §4, §5, §6, §7

AKT1 = system: T12, AKT1; conditions: 2.5 µM; ATP Loop; GTFGKVILVK
T12 construct: purchased ActivX Biosciences (KiNativ)
Protocol: as §1, §2, §3, §4, §5, §6, §7

HER2/ErbB2 = system: T13, HER2/ErbB2; conditions: 2.5 µM
T13 construct: purchased ActivX Biosciences (KiNativ)
Protocol: as §1, §2, §3, §4, §5, §6, §7

ITPK1 = system: T14, ITPK1; conditions: 2.5 µM; ATP; NFSAGTSDRESIFFNSHNVSKPESSSVLTELDKIEGVFERPSDEVIR
T14 construct: purchased ActivX Biosciences (KiNativ)
Protocol: as §1, §2, §3, §4, §5, §6, §7

PLK1 = system: T15, PLK1; conditions: 2.5 µM
T15 construct: purchased ActivX Biosciences (KiNativ)
Protocol: as §1, §2, §3, §4, §5, §6, §7

IKKa = system: T16, IKKa; conditions: 2.5 µM; Lys2; DLKPENIVLQDVGGK
T16 construct: purchased ActivX Biosciences (KiNativ)
Protocol: as §1, §2, §3, §4, §5, §6, §7

PIK3CB = system: T17, PIK3CB; conditions: 2.5 µM; ATP; VFGEDSVGVIFKNGDDLRQDMLTLQMLR
T17 construct: purchased ActivX Biosciences (KiNativ)
Protocol: as §1, §2, §3, §4, §5, §6, §7

IRE1 = system: T18, IRE1; conditions: 2.5 µM; Lys2; DLKPHNILISMPNAHGK
T18 construct: purchased ActivX Biosciences (KiNativ)
Protocol: as §1, §2, §3, §4, §5, §6, §7

BARK1 = system: T19, BARK1; conditions: 2.5 µM; Lys2; DLKPANILLDEHGHVR
T19 construct: purchased ActivX Biosciences (KiNativ)
Protocol: as §1, §2, §3, §4, §5, §6, §7

JNK1, JNK2, JNK3 = conditions: 2.5 µM; Lys2; DLKPSNIVVK
Protocol: as §1, §2, §3, §4, §5, §6, §7

Erk5 = system: T20, Erk5; conditions: 2.5 µM; Lys2; DLKPSNLLVNENCELK
T20 construct: purchased ActivX Biosciences (KiNativ)
Protocol: as §1, §2, §3, §4, §5, §6, §7

TAO2 = system: T21, TAO2; conditions: 2.5 µM; Lys2; DVKAGNILLSEPGLVK
T21 construct: purchased ActivX Biosciences (KiNativ)
Protocol: as §1, §2, §3, §4, §5, §6, §7

[1] = Lys1, LGSGQFGEVWEGLWNNTTPVAVKTLKPGSMDPNDFLR
[2] = Activation Loop, LLDIDETEYHADGGKVPIK

For `C=CC(=O)Nc1cc(Nc2nccc(-c3cn(C)c4ccccc34)n2)c(OC)cc1N(C)CCN(C)C` [Osimertinib, osimertinib, reference compound], which Inhibition (NEK2) is on record?
The Inhibition was -4.3%.

And the Inhibition (MARK1, MARK2)?
Its Inhibition is -15.4%.

And the Inhibition (FRK; Activation Loop, HEIKLPVK)?
Its Inhibition is -27.9%.

What about the Inhibition (FRK; [1]) of the same compound?
The Inhibition was 12.8%.

What about the Inhibition (CaMKK2; Lys1, LAYNENDNTYYAMKVLSK) of the same compound?
The Inhibition was 73.3%.

What about the Inhibition (CaMKK2; Lys2, DIKPSNLLVGEDGHIK) of the same compound?
Its Inhibition is 60.8%.

What about the Inhibition (PKD3; Lys1, DVAIKVIDK) of the same compound?
Its Inhibition is -11.4%.

And the Inhibition (PKD3; Lys2, NIVHCDLKPENVLLASAEPFPQVK)?
The Inhibition was -11.6%.

And the Inhibition (EGFR, EGFR-L858R; Activation Loop, […])?
Its Inhibition is 90.8%.

What about the Inhibition (EGFR, EGFR-L858R; Lys1, IPVAIKELR) of the same compound?
The Inhibition was 96.8%.

And the Inhibition (PIP4K2C; TLVIKEVSSEDIADMHSNLSNYHQYIVK)?
Its Inhibition is 59.0%.

What about the Inhibition (PIP4K2C; VKELPTLKDMDFLNK) of the same compound?
Its Inhibition is 55.5%.

And the Inhibition (MASTL; ATP Loop, GAFGKVYLGQK)?
Its Inhibition is 16.6%.

And the Inhibition (MASTL; Lys1, LYAVKVVK)?
Its Inhibition is 23.8%.

And the Inhibition (YANK3)?
Its Inhibition is 1.4%.

And the Inhibition (CHK2; Lys1, VAIKIISK)?
The Inhibition was 17.8%.

What about the Inhibition (CHK2; Lys2, DLKPENVLLSSQEEDCLIK) of the same compound?
Its Inhibition is 11.1%.

What about the Inhibition (CCRK) of the same compound?
The Inhibition was 16.1%.

And the Inhibition (GSK3A)?
Its Inhibition is -5.2%.

What about the Inhibition (AKT1) of the same compound?
Its Inhibition is -19.5%.

What about the Inhibition (HER2/ErbB2; [2]) of the same compound?
The Inhibition was 82.4%.

What about the Inhibition (HER2/ErbB2; Lys1, GIWIPDGENVKIPVAIKVLR) of the same compound?
The Inhibition was 89.1%.

And the Inhibition (ITPK1)?
The Inhibition was 22.9%.

And the Inhibition (PLK1; Lys1, CFEISDADTKEVFAGKIVPK)?
Its Inhibition is 9.6%.

What about the Inhibition (PLK1; Lys2, DLKLGNLFLNEDLEVK) of the same compound?
The Inhibition was 25.0%.

And the Inhibition (IKKa)?
Its Inhibition is -19.3%.

What about the Inhibition (PIK3CB) of the same compound?
The Inhibition was -1.4%.

What about the Inhibition (IRE1) of the same compound?
Its Inhibition is 13.6%.

And the Inhibition (BARK1)?
The Inhibition was -15.7%.

What about the Inhibition (JNK1, JNK2, JNK3) of the same compound?
Its Inhibition is 13.4%.

What about the Inhibition (Erk5) of the same compound?
Its Inhibition is -4.1%.

What about the Inhibition (TAO2) of the same compound?
Its Inhibition is 8.2%.

Which Inhibition (NEK2) does the source give for `C=CC(=O)Nc1cc(C(=O)Nc2nc3cccc(C)c3n2[C@@H]2CCCCN(C(=O)C=C)C2)cs1` [ZNL-0056] here?
Its Inhibition is -9.4%.

What about the Inhibition (MARK1, MARK2) of the same compound?
The Inhibition was 11.4%.

What about the Inhibition (FRK; Activation Loop, HEIKLPVK) of the same compound?
Its Inhibition is -77.6%.

What about the Inhibition (FRK; [1]) of the same compound?
Its Inhibition is 7.6%.

And the Inhibition (CaMKK2; Lys1, LAYNENDNTYYAMKVLSK)?
The Inhibition was 74.6%.

And the Inhibition (CaMKK2; Lys2, DIKPSNLLVGEDGHIK)?
Its Inhibition is 73.1%.

What about the Inhibition (PKD3; Lys1, DVAIKVIDK) of the same compound?
The Inhibition was -14.1%.

And the Inhibition (PKD3; Lys2, NIVHCDLKPENVLLASAEPFPQVK)?
The Inhibition was 3.5%.

And the Inhibition (EGFR, EGFR-L858R; Activation Loop, LLGAEEKEYHAEGGKVPIK)?
The Inhibition was 83.2%.

What about the Inhibition (EGFR, EGFR-L858R; Lys1, IPVAIKELR) of the same compound?
Its Inhibition is 94.3%.

What about the Inhibition (PIP4K2C; TLVIKEVSSEDIADMHSNLSNYHQYIVK) of the same compound?
Its Inhibition is 60.9%.

And the Inhibition (PIP4K2C; VKELPTLKDMDFLNK)?
Its Inhibition is 53.5%.

And the Inhibition (MASTL; ATP Loop, GAFGKVYLGQK)?
Its Inhibition is 13.0%.

And the Inhibition (MASTL; Lys1, LYAVKVVK)?
Its Inhibition is 16.2%.

And the Inhibition (YANK3)?
The Inhibition was -11.7%.

And the Inhibition (CHK2; Lys1, VAIKIISK)?
Its Inhibition is 23.8%.

And the Inhibition (CHK2; Lys2, DLKPENVLLSSQEEDCLIK)?
Its Inhibition is 13.8%.

What about the Inhibition (CCRK) of the same compound?
Its Inhibition is 2.1%.

And the Inhibition (GSK3A)?
The Inhibition was 11.5%.

What about the Inhibition (AKT1) of the same compound?
Its Inhibition is -1.6%.

What about the Inhibition (HER2/ErbB2; [2]) of the same compound?
Its Inhibition is 65.9%.

And the Inhibition (HER2/ErbB2; Lys1, GIWIPDGENVKIPVAIKVLR)?
The Inhibition was 60.7%.

And the Inhibition (ITPK1)?
The Inhibition was -0.632%.

And the Inhibition (PLK1; Lys1, CFEISDADTKEVFAGKIVPK)?
The Inhibition was 11.9%.

And the Inhibition (PLK1; Lys2, DLKLGNLFLNEDLEVK)?
The Inhibition was -1.2%.

And the Inhibition (IKKa)?
Its Inhibition is 5.3%.

And the Inhibition (PIK3CB)?
Its Inhibition is -22.3%.

What about the Inhibition (IRE1) of the same compound?
The Inhibition was -29.1%.

And the Inhibition (BARK1)?
Its Inhibition is 17.8%.

And the Inhibition (JNK1, JNK2, JNK3)?
Its Inhibition is -5.1%.

And the Inhibition (Erk5)?
The Inhibition was -18.2%.

And the Inhibition (TAO2)?
The Inhibition was -4.5%.
